The text below walks through data of patent US20120202794A1 (priority 2011, published 2012).

A short description of series [1]: Cell cytotoxicity assay (MTS), CC90 as reported in Table 1, cell line not stated. Format: cell-based. The settings on record: human; MTS assay; 8 days incubation; cell line not given. A digest of the protocol:
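Compounds, serially diluted from 100 μM, were incubated 8 days at 37° C with Huh7, HepG2 or BxPC3 (2×10^3 cells/well) or CEM (5×10^3 cells/well). Viability was read by MTS, 2 h, absorbance 490 nm. CC90 (90% inhibition) was taken against untreated cells.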

In series [2] the test system is HCV Replicon 1b. Put plainly: HCV inhibition assay, HCV replicon 1b (Clone A or ET-lunet cells; RT-PCR or luciferase reporter). Format: cell-based. The note with it: Hepatitis C virus, 96 h, HCV replicon 1b; 4 days incubation; read-out: Replicon 1b potency EC90. A digest of the protocol: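 Clone A (1500/well) or ET-lunet (3000/well) replicon cells treated with serially diluted compounds (0.5% DMSO, no G418) for 4 days at 37 °C. HCV RNA measured by one-step RT-PCR normalized to rRNA (ΔΔCt) or by luciferase luminescence versus DMSO controls; EC50/EC90 by curve fitting.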

Consider `CC[C@@H](C)[C@H]1C(=O)N[C@@H](c2ccccc2)CN1C(=O)[C@@H]1C[C@H]1c1ccccc1` [Compound 341, (3S,6S)-3-((R)-sec-butyl)-6-phenyl-4-((1R,2R)-2-phenylcyclopropanecarbonyl)-piperazin-2-one], for which, in series [1], the CC90 at 8 days was greater than 10 µM. Also, the EC90 in series [2] was 2.54 µM.

In series [1], `CC(C)(C)C[C@H]1C(=O)N[C@@H](c2ccccc2)CN1C(=O)c1cc(-c2ccc(F)cc2)on1` [Compound 342, (3S,6S)-4-(5-(4-fluorophenyl)isoxazole-3-carbonyl)-3-neopentyl-6-phenylpiperazin-2-one] had a CC90 at 8 days greater than 10 µM. In series [2], the EC90 came to 0.2 µM.

Consider `CC(C)(C)C[C@H]1C(=O)N[C@@H](c2ccccc2)CN1C(=O)[C@@H]1C[C@H]1c1ccccc1` [Compound 344, (3S,6S)-3-neopentyl-6-phenyl-4-((1R,2R)-2-phenylcyclopropanecarbonyl)piperazin-2-one], for which the CC90 at 8 days in series [1] is greater than 10 µM. The EC90 in series [2] was found to be 1 µM.

`CC(C)C[C@H]1C(=O)N[C@@H](c2ccc(F)cc2)CN1C(=O)c1cc(-c2ccc(F)cc2)on1` [Compound 345, (3S,6S)-6-(4-fluorophenyl)-4-(5-(4-fluorophenyl)isoxazole-3-carbonyl)-3-isobutyl-piperazin-2-one] came in with a CC90 at 8 days in series [1] greater than 10 µM. Also, the EC90 in series [2] turned out to be 0.65 µM.

Molecule `CC(C)C[C@H]1C(=O)N[C@@H](c2ccc(F)cc2)CN1C(=O)[C@@H]1C[C@H]1c1ccccc1` [Compound 347, (3S,6S)-6-(4-fluorophenyl)-3-isobutyl-4-((1R,2R)-2-phenylcyclopropanecarbonyl)-piperazin-2-one] yielded a CC90 at 8 days in series [1] greater than 10 µM. The 90% effect concentration (EC90) in series [2] was 2.05 µM.

Consider `Cc1ccc([C@H]2CN(C(=O)c3cc(-c4ccc(F)cc4)on3)[C@@H](CC(C)C)C(=O)N2)cc1` [Compound 348, (3S,6S)-4-(5-(4-fluorophenyl)isoxazole-3-carbonyl)-3-isobutyl-6-(p-tolyl)piperazin-2-one], for which, in series [1], the CC90 at 8 days is greater than 10 µM. For the same molecule, the concentration for an effect of 90% (EC90) in series [2] turned out to be 1.8 µM.

In series [1], `CC(C)C[C@H]1CN(C(=O)c2cn(-c3ccc(Cl)cc3)nn2)[C@@H](CC(C)C)C(=O)N1` [Compound 350, (3S,6S)-4-(1-(4-chlorophenyl)-1H-1,2,3-triazole-4-carbonyl)-3,6-diisobutylpiperazin-2-one] showed a CC90 at 8 days greater than 10 µM. Moreover, the 90% effect concentration (EC90) in series [2] came out at 1.96 µM.

In series [1], `CC(C)C[C@H]1CN(C(=O)c2cn(-c3ccc(F)cc3)nn2)[C@@H](CC(C)C)C(=O)N1` [Compound 351, (3S,6S)-4-(1-(4-fluorophenyl)-1H-1,2,3-triazole-4-carbonyl)-3,6-diisobutylpiperazin-2-one] yielded a CC90 at 8 days greater than 10 µM. Further, the 90% effect concentration (EC90) in series [2] stood at 1.63 µM.

For the molecule `CC(C)C[C@H]1C(=O)N[C@@H](c2ccccc2Cl)CN1C(=O)c1cc(-c2ccc(F)cc2)on1` [Compound 352, (3S,6S)-6-(2-chlorophenyl)-4-(5-(4-fluorophenyl)isoxazole-3-carbonyl)-3-isobutyl-piperazin-2-one], the CC90 at 8 days in series [1] was greater than 10 µM. In addition, the concentration for an effect of 90% (EC90) in series [2] was found to be 0.21 µM.

As to `CC(C)C[C@H]1C(=O)N[C@@H](c2ccccc2Cl)CN1C(=O)[C@@H]1C[C@H]1c1ccccc1` [Compound 354, (3S,6S)-6-(2-chlorophenyl)-3-isobutyl-4-((1R,2R)-2-phenylcyclopropanecarbonyl)-piperazin-2-one], the CC90 at 8 days in series [1] is greater than 10 µM. In addition, the EC90 in series [2] was found to be 1.85 µM.

Turning to `CC(C)C[C@H]1C(=O)N[C@@H](c2ccccc2F)CN1C(=O)[C@@H]1C[C@H]1c1ccccc1` [Compound 357, (3S,6S)-6-(2-fluorophenyl)-3-isobutyl-4-((1R,2R)-2-phenylcyclopropanecarbonyl)-piperazin-2-one], in series [1], the CC90 at 8 days is greater than 10 µM. The EC90 in series [2] came out at 0.52 µM.

As for `CC(C)C[C@H]1C(=O)N[C@@H](c2ccc(Cl)cc2)CN1C(=O)c1cc(-c2ccc(F)cc2)on1` [Compound 358, (3S,6S)-6-(4-chlorophenyl)-4-(5-(4-fluorophenyl)isoxazole-3-carbonyl)-3-isobutyl-piperazin-2-one], the CC90 at 8 days in series [1] is greater than 10 µM. In addition, in series [2], the concentration for an effect of 90% (EC90) is 1.53 µM.

In series [1], `CC(C)C[C@H]1C(=O)N[C@@H](c2ccc(Cl)cc2)CN1C(=O)[C@@H]1C[C@H]1c1ccccc1` [Compound 360, (3S,6S)-6-(4-chlorophenyl)-3-isobutyl-4-((1R,2R)-2-phenylcyclopropanecarbonyl)-piperazin-2-one] returned a CC90 at 8 days greater than 10 µM. The EC90 in series [2] came to 3.64 µM.

The molecule `Cc1ccccc1[C@H]1CN(C(=O)c2cc(-c3ccc(F)cc3)on2)[C@@H](CC(C)C)C(=O)N1` [Compound 361, (3S,6S)-4-(5-(4-fluorophenyl)isoxazole-3-carbonyl)-3-isobutyl-6-(o-tolyl)piperazin-2-one] yielded a CC90 at 8 days in series [1] greater than 10 µM. The concentration for an effect of 90% (EC90) in series [2] amounted to 1.42 µM.

As to `Cc1ccccc1[C@H]1CN(C(=O)[C@@H]2C[C@H]2c2ccccc2)[C@@H](CC(C)C)C(=O)N1` [Compound 363, (3S,6S)-3-isobutyl-4-((1R,2R)-2-phenylcyclopropanecarbonyl)-6-(o-tolyl)piperazin-2-one], in series [1], the CC90 at 8 days is greater than 10 µM. Moreover, the 90% effect concentration (EC90) in series [2] came to 2.07 µM.

Take `CC(C)C[C@H]1C(=O)N[C@@H](c2ccc(C(F)(F)F)cc2)CN1C(=O)[C@@H]1C[C@H]1c1ccccc1` [Compound 364, (3S,6S)-3-isobutyl-4-((1R,2R)-2-phenylcyclopropanecarbonyl)-6-(4-(trifluoro-methyl)phenyl)piperazin-2-one]: the CC90 at 8 days in series [1] is greater than 10 µM. The EC90 in series [2] was greater than 10 µM.

In the case of `CC(C)C[C@H]1C(=O)N[C@@H](c2ccc(C(F)(F)F)cc2)CN1C(=O)c1cc(-c2ccc(F)cc2)on1` [Compound 366, (3S,6S)-4-(5-(4-fluorophenyl)isoxazole-3-carbonyl)-3-isobutyl-6-(4-(trifluoromethyl)-phenyl)piperazin-2-one], the CC90 at 8 days in series [1] is greater than 10 µM. The EC90 in series [2] came out at 6 µM.

On to `CC(C)C[C@H]1C(=O)N[C@@H](c2cccc(F)c2)CN1C(=O)c1cc(-c2ccc(F)cc2)on1` [Compound 367, (3S,6S)-6-(3-fluorophenyl)-4-(5-(4-fluorophenyl)isoxazole-3-carbonyl)-3-isobutylpiperazin-2-one], for which the CC90 at 8 days in series [1] is greater than 10 µM. The 90% effect concentration (EC90) in series [2] stood at 0.27 µM.

Take `CC(C)C[C@H]1C(=O)N[C@@H](c2cccc(F)c2)CN1C(=O)[C@@H]1C[C@H]1c1ccccc1` [Compound 369, (3S,6S)-6-(3-fluorophenyl)-3-isobutyl-4-((1R,2R)-2-phenylcyclopropanecarbonyl)-piperazin-2-one]: the CC90 at 8 days in series [1] was greater than 10 µM. The EC90 in series [2] turned out to be 1.63 µM.

In series [1], `CC(C)C[C@H]1C(=O)N[C@@H](c2ccccc2Cl)CN1C(=O)c1noc(-c2ccc(F)cc2)n1` [Compound 371, (3S,6S)-6-(2-chlorophenyl)-4-(5-(4-fluorophenyl)-1,2,4-oxadiazole-3-carbonyl)-3-isobutylpiperazin-2-one] displayed a CC90 at 8 days greater than 10 µM. In series [2], the 90% effect concentration (EC90) amounted to 0.47 µM.

Molecule `CC(C)C[C@H]1C(=O)N[C@@H](c2ccccc2F)CN1C(=O)c1cc(-c2ccc(F)cc2)no1` [Compound 372, (3S,6S)-6-(2-fluorophenyl)-4-(3-(4-fluorophenyl)isoxazole-5-carbonyl)-3-isobutylpiperazin-2-one] came in with a CC90 at 8 days in series [1] greater than 10 µM. Besides, the EC90 in series [2] worked out at 0.7 µM.

The molecule `CC(C)C[C@H]1C(=O)N[C@@H](c2ccccc2F)CN1C(=O)/C=C/c1ccc(F)cc1F` [Compound 374, (3S,6S)-4-((E)-3-(2,4-difluorophenyl)acryloyl)-6-(2-fluorophenyl)-3-isobutylpipera-zin-2-one] gave a CC90 at 8 days in series [1] greater than 10 µM. Moreover, the 90% effect concentration (EC90) in series [2] turned out to be 0.75 µM.

As for `CC(C)C[C@H]1C(=O)N[C@@H](c2ccccc2)CN1C(=O)c1noc(-c2ccc(F)cc2)c1F` [Compound 376, (3S,6S)-4-(4-fluoro-5-(4-fluorophenyl)isoxazole-3-carbonyl)-3-isobutyl-6-phenyl-piperazin-2-one], the CC90 at 8 days in series [1] was greater than 10 µM. Also, the EC90 in series [2] worked out at 0.5 µM.

In series [1], `CC(C)C[C@H]1CN(C(=O)c2noc(-c3ccc(F)cc3)c2F)[C@@H](CC(C)C)C(=O)N1` [Compound 379, (3S,6S)-4-(4-fluoro-5-(4-fluorophenyl)isoxazole-3-carbonyl)-3,6-diisobutylpiperazin-2-one] gave a CC90 at 8 days greater than 10 µM. Also, the EC90 in series [2] amounted to 0.21 µM.

The molecule `CC(C)C[C@H]1C(=O)N[C@@H](c2ccccc2F)CN1C(=O)c1noc(-c2ccc(F)cc2)c1F` [Compound 380, (3S,6S)-4-(4-fluoro-5-(4-fluorophenyl)isoxazole-3-carbonyl)-6-(2-fluorophenyl)-3-isobutylpiperazin-2-one] came in with a CC90 at 8 days in series [1] greater than 10 µM. Also, the 90% effect concentration (EC90) in series [2] is 0.18 µM.

With `CC(C)C[C@H]1C(=O)N[C@@H](C2CCCC2)CN1C(=O)c1noc(-c2ccc(F)cc2)c1F` [Compound 381, (3S,6S)-6-cyclopentyl-4-(4-fluoro-5-(4-fluorophenyl)isoxazole-3-carbonyl)-3-isobutylpiperazin-2-one], the CC90 at 8 days in series [1] is greater than 10 µM. Besides, in series [2], the EC90 is 0.25 µM.

`CC(C)C[C@H]1C(=O)N[C@@H](C2CCCCC2)CN1C(=O)c1noc(-c2ccc(F)cc2)c1F` [Compound 382, (3S,6S)-6-cyclohexyl-4-(4-fluoro-5-(4-fluorophenyl)isoxazole-3-carbonyl)-3-isobutylpiperazin-2-one] came in with a CC90 at 8 days in series [1] greater than 10 µM. For the same molecule, the concentration for an effect of 90% (EC90) in series [2] is 0.37 µM.

With `CC(C)C[C@H]1CN(C(=O)c2noc(-c3ccc(F)cc3F)c2F)[C@@H](CC(C)C)C(=O)N1` [Compound 383, (3S,6S)-4-(5-(2,4-difluorophenyl)-4-fluoroisoxazole-3-carbonyl)-3,6-diisobutyl-piperazin-2-one], the CC90 at 8 days in series [1] is greater than 10 µM. Also, the EC90 in series [2] is 0.71 µM.
